Data on 20 compounds can be found in ChEMBL document CHEMBL5523733, “Small Molecule Targeting PPM1A Activates Autophagy for Mycobacterium tuberculosis Host-Directed Therapy” (J Med Chem, 2024).

The target of one series is T1, Protein phosphatase 1A (Homo sapiens, UniProt P35813).
T1 sequence (P35813 whole entry): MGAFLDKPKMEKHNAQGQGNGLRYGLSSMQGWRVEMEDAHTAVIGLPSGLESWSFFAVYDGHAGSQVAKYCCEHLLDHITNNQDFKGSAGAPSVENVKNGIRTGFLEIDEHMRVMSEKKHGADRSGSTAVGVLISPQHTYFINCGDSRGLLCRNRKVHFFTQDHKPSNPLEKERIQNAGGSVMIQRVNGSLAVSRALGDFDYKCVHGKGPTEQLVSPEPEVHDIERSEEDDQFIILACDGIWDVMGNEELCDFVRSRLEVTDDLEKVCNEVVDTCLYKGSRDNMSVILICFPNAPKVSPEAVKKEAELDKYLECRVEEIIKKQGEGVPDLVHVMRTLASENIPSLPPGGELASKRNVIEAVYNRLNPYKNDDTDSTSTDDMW
The experiment in a line: Inhibition of recombinant human PPM1A using pNPP as substrate preincubated for 15 mins followed by substrate addition measured after 20 mins by absorbance based assay.

A short description of series [1]: Cytotoxicity against human Caco-2 cells by resazurin dye based assay. It counts as toxicity, cell-based. Background: Resazurin is reduced to fluorescent resorufin, in cell work by metabolically active cells.
Series [2] can be described thus: Cytotoxicity against human THP-1 cells by resazurin dye based assay. It counts as toxicity, cell-based.
Series [3] has as its system THP-1. Kind of series: Induction of DNA damage in human THP-1 macrophages assessed as increase in gamma-H2AX at 10 uM incubated for 24 hrs by Western blot analysis. The conditions noted are these: thp-1, 24 h. Format: toxicity, cell-based.
For series [4], the system named is dsDNA. The experiment in a line: Binding affinity to dsDNA (unknown origin) of 5 uM assessed as reduction in fluorescence intensity at 5 uM relative to control. It counts as nucleic-acid assay. Further details: scale not given: the % may be the effect or the level left; call rule not given here.
Series [5] deals with THP-1. The experiment in a line: Cytotoxicity against human THP-1 monocytes assessed as cell viability at 10 uM incubated for 24 hrs by flow cytometry. Format: toxicity, cell-based. The conditions noted are these: thp-1, 24 h. Background: In flow cytometry, cells or beads pass a laser one at a time.
The subject of series [6] is dsDNA. Kind of series: Binding affinity to dsDNA (unknown origin) of 10 uM assessed as reduction in fluorescence intensity at 5 uM relative to control. It counts as nucleic-acid assay. Also noted: scale not given: the % may be the effect or the level left.
In series [7] the test system is THP-1. Kind of series: Induction of DNA damage in human THP-1 monocytes assessed as increase in gamma-H2AX at 1 uM incubated for 24 hrs by Western blot analysis. It counts as toxicity, cell-based. As to conditions: thp-1, 24 h.

Each structure is given as a SMILES string. Some results are limits rather than exact numbers.

As to `COc1cc2c[n+](CCO)c3ccc(F)cc3c2cc1-c1ccc(NC(=O)OC(C)(C)C)cc1`, at Protein phosphatase 1A, the IC50 (commonly the concentration needed to halve the response being measured) was over 20 µM. For `COc1cc2c[n+](CCO)c3ccc(F)cc3c2cc1-c1ccc(F)cc1`, at Protein phosphatase 1A, the IC50 was over 20 µM. Still for that read-out and setting: for `COc1cc2c[n+](CCO)c3ccc(F)cc3c2cc1C#Cc1ccccc1` the value was over 10 µM; for `COC(=O)c1cccc(-c2cc3c(cc2OC)c[n+](CCO)c2ccc(F)cc32)c1`, over 20 µM; for `COc1ccc2c(c1)c1ccc(OC(F)(F)F)cc1c[n+]2CCO`, 3.06 µM.

Turning to `COc1ccc2c(c1)c[n+](C(CO)CO)c1ccc(F)cc21`, on Protein phosphatase 1A, the IC50 was over 20 µM. On the same count and under the same terms, for `CCOc1ccc2c(c1)c[n+](CCO)c1ccc(OC)cc21` the value was over 20 µM.

In the case of `OCC[n+]1cc2cc(OC(F)(F)F)ccc2c2cc(F)ccc21`, the CC50 in series [1] and in series [2] was over 200 µM in each case. In addition, the IC50 on Protein phosphatase 1A was 1.43 µM. Turning to `COc1ccc2c(c1)c[n+](CCO)c1cc(F)ccc21`, on Protein phosphatase 1A, the IC50 is over 20 µM.

As for `COc1ccc2c(c1)c[n+](Cc1cccc(O)c1)c1ccc(F)cc21`, the IC50 on Protein phosphatase 1A is over 20 µM. The same measure, in the same setting: as for `COc1ccc2c(c1)c[n+](CCO)c1ccc(C)cc21`, the figure is over 20 µM; as for `CC(C)Oc1ccc2c(c1)c[n+](CCO)c1ccc(F)cc21`, 3.72 µM. Take `OCC[n+]1cc2cc(F)ccc2c2cc(F)ccc21`: on Protein phosphatase 1A, the concentration for half-maximal inhibition (IC50) is over 20 µM.

As to `COc1cc2c[n+](CCO)c3ccc(F)cc3c2cc1-c1ccc2c(c1)OCO2`, the IC50 at Protein phosphatase 1A was over 20 µM. Still for that read-out and setting: for `Cc1ccc2c(c1)c[n+](CCO)c1ccc(F)cc21` the value was over 20 µM; for `OCC[n+]1cc2ccccc2c2cc(F)ccc21`, over 20 µM.

Regarding `COc1cc2c[n+](CCO)c3ccc(F)cc3c2cc1OC`, the IC50 at Protein phosphatase 1A was over 20 µM. On the same count and under the same terms, for `CCCCOc1ccc2c(c1)c[n+](CCO)c1ccc(F)cc21` the value was 3.56 µM; for `COc1cc2c[n+](CCO)c3ccc(F)cc3c2cc1C1CC1`, over 20 µM. With `C[n+]1cc2c3c(ccc2c2ccc4cc5c(cc4c21)OCO5)OCO3` [SANGUINARIUM], the Activity entry in the series with THP-1 [3] is “Toxic”; in the series with dsDNA [4], 84%; with THP-1 [5] it was “Toxic”; in the series with dsDNA [6], 93%; in the series with THP-1 [7] it was “Toxic”.
